Experimental data taken from US20260184693A1, “INHIBITORS OF SOLUTE CARRIER FAMILY 6A MEMBER 19 (SLC6A19) AND METHODS OF USE THEREOF” (Maze Therapeutics, Inc., priority 2022, published 2026).

target: T1, human SLC6A19 (Homo sapiens, UniProt Q695T7); experiment: Example B2: 13C6,15N-isoleucine uptake, RapidFire mass spectrometry, in CHO cells with doxycycline-inducible expression of human SLC6A19 and TMEM27; type: cell-based; conditions: read-out: SLC6A19_RapidFire Uptake Assay IC50
T1 construct: expressed in transfected cells
T1 sequence (Q695T7 1-634): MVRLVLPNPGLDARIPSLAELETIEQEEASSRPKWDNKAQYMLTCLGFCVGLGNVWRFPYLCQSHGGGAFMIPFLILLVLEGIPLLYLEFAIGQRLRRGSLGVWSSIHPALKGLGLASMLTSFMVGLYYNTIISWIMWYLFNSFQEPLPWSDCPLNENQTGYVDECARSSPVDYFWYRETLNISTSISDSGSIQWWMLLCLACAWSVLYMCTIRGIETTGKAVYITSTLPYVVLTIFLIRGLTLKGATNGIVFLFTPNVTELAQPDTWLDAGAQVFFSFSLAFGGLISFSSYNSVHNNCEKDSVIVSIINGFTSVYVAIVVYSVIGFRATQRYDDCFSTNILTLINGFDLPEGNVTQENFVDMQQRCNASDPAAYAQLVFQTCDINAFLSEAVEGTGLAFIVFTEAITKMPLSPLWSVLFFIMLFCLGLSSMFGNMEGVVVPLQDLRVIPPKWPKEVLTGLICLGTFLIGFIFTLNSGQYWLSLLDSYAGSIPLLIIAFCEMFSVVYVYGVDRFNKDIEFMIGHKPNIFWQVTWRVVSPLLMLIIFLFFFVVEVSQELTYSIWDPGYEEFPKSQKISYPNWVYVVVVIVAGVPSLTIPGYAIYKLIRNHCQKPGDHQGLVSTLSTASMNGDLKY
T1 sequence (Q9HBJ8 15-222 partner): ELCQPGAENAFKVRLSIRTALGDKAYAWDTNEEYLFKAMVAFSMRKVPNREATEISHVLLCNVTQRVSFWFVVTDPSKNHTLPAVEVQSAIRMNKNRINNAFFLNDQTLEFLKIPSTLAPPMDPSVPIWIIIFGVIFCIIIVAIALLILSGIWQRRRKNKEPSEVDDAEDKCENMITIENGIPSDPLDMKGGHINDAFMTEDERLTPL
Description: Assay ready vials of CHO cells with doxycycline inducible expression of human SLC6A19 and TMEM27 were thawed, plated in T175 flasks containing DMEM/F12 media, 10% FBS, 100 Penicillin-Streptomycin, 1× UltraGlutamate, 1 mM Sodium Pyruvate, Sodium Bicarbonate (7.5 mL of 7.5% solution in 500 mL media final), […] Blasticidin, 150 µg/mL Hygromycin B Gold, and 500 µg/mL G418, and incubated (humidified, 37° C. with […]) for 48 hours. Media was then removed, flasks were washed with 20 mL of DPBS, and 5 mL of TryμLE™ Express was added to each flask to initiate cell dissociation. After 5 minutes, 10 mL of cell culture media was added to each flask and mixed. The cell suspension was collected and centrifuged for 5 minutes at 200×g. The supernatant was removed, and the pellet was resuspended in 10 mL of cell culture media. Resuspended cells were counted using a Vi-Cell. 30 μL/well (20,000 cells/well) of cell suspension was added to Poly-D-Lysine 384-well black/clear plates. Plates were incubated (humidified, 37° C. with 5% CO2) for 24 hours. To induce expression of human SLC6A19 and TMEM27, 10 μL of assay culture media containing 4 μg/mL doxycycline was added to each well. Assay plates were then incubated (humidified, 37° C. with 5% CO2) overnight. After incubation, the media was removed, and wells were washed 3 times with 40 μL of warmed DPBS. […] All compounds were plated in a duplicate 10-point dilution series that consisted of 2-fold dilutions. The plates were incubated (humidified, 37° C. with 5% CO2) with compound for 20 minutes. Afterwards, 20 μL/well of 2 mM 13C6,15N-1-isoleucine was added to each well and plates were incubated again (humidified, 37° C. with 5% CO2) for another 20 minutes. Assay buffer was then removed, and plates were washed. 70 μL/well of stop solution (75% acetonitrile, 25% HPLC grade water, 250 nM 1-leucine-1-13 C (RapidFire standard)) was added to each well. The plates were sealed and then placed in a −20° C. freezer for 20 minutes. The plates were thawed at room temperature for 20 minutes and then centrifuge for 20 minutes at 3000 rpm. Using an ABSciex API4000 mass spectrometer, processed samples were loaded onto the graphitic carbon SPE-column. The time for aspiration, load/wash, elution and re-equilibration time was 600, 1500, 3000 and 500 milliseconds, respectively. Peak areas were calculated using RapidFire Integrator software.

Q: With `Cc1ncoc1C(=O)N1CCC[C@@H](N(C)C(=O)NCc2cc3cc(Cl)ccc3[nH]2)C1` [Compound 27, (R)-3-((5-chloro-1H-indol-2-yl)methyl)-1-methyl-1-(1-(4-methyloxazole-5-carbonyl)piperidin-3-yl)urea] as the molecule, how does the IC50 read?
A: 821 nM

Q: `CN(C(=O)NCc1cc2cc(Cl)ccc2[nH]1)[C@@H]1CCCN(C(=O)c2ncnn2C)C1` [Compound 28, (R)-3-((5-chloro-1H-indol-2-yl)methyl)-1-methyl-1-(1-(1-methyl-1H-1,2,4-triazole-5-carbonyl)piperidin-3-yl)urea] was tested. Which IC50 did it give?
A: > 23400 nM

Q: Which IC50 does the source give for `CN(C(=O)NCc1cc2cc(Cl)ccc2[nH]1)[C@@H]1CCCN(C(=O)CNC(N)=O)C1` [Compound 29, (R)-1-(1-(carbamoylglycyl)piperidin-3-yl)-3-((5-chloro-1H-indol-2-yl)methyl)-1-methylurea] here?
A: 2490 nM

Q: For `CN(C(=O)NCc1cc2cc(Cl)ccc2[nH]1)[C@@H]1CCCN(C(=O)Cn2nccn2)C1` [Compound 30, (R)-1-(1-(2-(2H-1,2,3-triazol-2-yl)acetyl)piperidin-3-yl)-3-((5-chloro-1H-indol-2-yl)methyl)-1-methylurea], which IC50 is on record?
A: 3700 nM

Q: For `Cc1cc(C(=O)N2CCC[C@@H](N(C)C(=O)NCc3cc4cc(Cl)ccc4[nH]3)C2)on1` [Compound 31, (R)-3-((5-chloro-1H-indol-2-yl)methyl)-1-methyl-1-(1-(3-methylisoxazole-5-carbonyl)piperidin-3-yl)urea], which IC50 is on record?
A: 1490 nM

Q: How did the IC50 turn out when `CN(C(=O)NCc1cc2cc(Cl)ccc2[nH]1)[C@@H]1CCCN(C(=O)CS(C)(=O)=O)C1` [Compound 32, (R)-3-((5-chloro-1H-indol-2-yl)methyl)-1-methyl-1-(1-(2-(methylsulfonyl)acetyl)piperidin-3-yl)urea] was run?
A: 8610 nM

Q: Which IC50 does the source give for `CC(C)C(=O)N1CCC[C@@H](N(C)C(=O)NCc2cc3cc(Cl)ccc3[nH]2)C1` [Compound 33, (R)-3-((5-chloro-1H-indol-2-yl)methyl)-1-(1-isobutyrylpiperidin-3-yl)-1-methylurea] here?
A: 405 nM

Q: Which IC50 does the source give for `CN(C(=O)NCc1cc2cc(Cl)ccc2[nH]1)[C@@H]1CCCN(C(=O)c2ccncc2)C1` [Compound 34, (R)-3-((5-chloro-1H-indol-2-yl)methyl)-1-(1-isonicotinoylpiperidin-3-yl)-1-methylurea] here?
A: 1400 nM

Q: For `Cc1cnc(C(=O)N2CCC[C@@H](N(C)C(=O)NCc3cc4cc(Cl)ccc4[nH]3)C2)s1` [Compound 35, (R)-3-((5-chloro-1H-indol-2-yl)methyl)-1-methyl-1-(1-(5-methylthiazole-2-carbonyl)piperidin-3-yl)urea], which IC50 is on record?
A: 556 nM

Q: With `Cc1cnoc1C(=O)N1CCC[C@@H](N(C)C(=O)NCc2cc3cc(Cl)ccc3[nH]2)C1` [Compound 36, (R)-3-((5-chloro-1H-indol-2-yl)methyl)-1-methyl-1-(1-(4-methylisoxazole-5-carbonyl)piperidin-3-yl)urea] as the molecule, how does the IC50 read?
A: 1570 nM

Q: How did the IC50 turn out when `CN(C(=O)NCc1cc2cc(Cl)ccc2[nH]1)[C@@H]1CCCN(C(=O)c2ncc[nH]c2=O)C1` [Compound 37, (R)-3-((5-chloro-1H-indol-2-yl)methyl)-1-methyl-1-(1-(3-oxo-3,4-dihydropyrazine-2-carbonyl)piperidin-3-yl)urea] was run?
A: 19600 nM

Q: Which IC50 does the source give for `Cc1ncc(C(=O)N2CCC[C@@H](N(C)C(=O)NCc3cc4cc(Cl)ccc4[nH]3)C2)o1` [Compound 38, (R)-3-((5-chloro-1H-indol-2-yl)methyl)-1-methyl-1-(1-(2-methyloxazole-5-carbonyl)piperidin-3-yl)urea] here?
A: 428 nM

Q: How did the IC50 turn out when `CN(C(=O)NCc1cc2cc(Cl)ccc2[nH]1)[C@@H]1CCCN(C(=O)c2ccn(C(F)F)n2)C1` [Compound 39, (R)-3-((5-chloro-1H-indol-2-yl)methyl)-1-(1-(1-(difluoromethyl)-1H-pyrazole-3-carbonyl)piperidin-3-yl)-1-methylurea] was run?
A: 231 nM

Q: `CCC(O)C(=O)N1CCC[C@@H](N(C)C(=O)NCc2cc3cc(Cl)ccc3[nH]2)C1` (stereo partly drawn) [Compound 40, 3-((5-chloro-1H-indol-2-yl)methyl)-1-((3R)-1-(2-hydroxybutanoyl)piperidin-3-yl)-1-methylurea] was tested. Which IC50 did it give?
A: 5250 nM

Q: Which IC50 does the source give for `Cc1cc(C(=O)N2CCC[C@@H](N(C)C(=O)NCc3cc4cc(Cl)ccc4[nH]3)C2)[nH]n1` [Compound 41, (R)-3-((5-chloro-1H-indol-2-yl)methyl)-1-methyl-1-(1-(3-methyl-1H-pyrazole-5-carbonyl)piperidin-3-yl)urea] here?
A: 854 nM

Q: Which IC50 does the source give for `CN(C(=O)NCc1cc2cc(Cl)ccc2[nH]1)[C@@H]1CCCN(C(=O)c2cccc(F)c2F)C1` [Compound 42, (R)-3-((5-chloro-1H-indol-2-yl)methyl)-1-(1-(2,3-difluorobenzoyl)piperidin-3-yl)-1-methylurea] here?
A: 1240 nM

Q: Which IC50 does the source give for `COC(C)C(=O)N1CCC[C@@H](N(C)C(=O)NCc2cc3cc(Cl)ccc3[nH]2)C1` (stereo partly drawn) [Compound 43, 3-((5-chloro-1H-indol-2-yl)methyl)-1-((3R)-1-(2-methoxypropanoyl)piperidin-3-yl)-1-methylurea] here?
A: 6250 nM

Q: How did the IC50 turn out when `CN(C(=O)NCc1cc2cc(Cl)ccc2[nH]1)[C@@H]1CCCN(C(=O)C2CC(F)(F)C2)C1` [Compound 44, (R)-3-((5-chloro-1H-indol-2-yl)methyl)-1-(1-(3,3-difluorocyclobutane-1-carbonyl)piperidin-3-yl)-1-methylurea] was run?
A: 350 nM

Q: `CN(C(=O)NCc1cc2cc(Cl)ccc2[nH]1)[C@@H]1CCCN(C(=O)C2(C)CC2)C1` [Compound 45, (R)-3-((5-chloro-1H-indol-2-yl)methyl)-1-methyl-1-(1-(1-methylcyclopropane-1-carbonyl)piperidin-3-yl)urea] was tested. Which IC50 did it give?
A: 1550 nM

Q: For `CN(C(=O)NCc1cc2cc(Cl)ccc2[nH]1)[C@@H]1CCCN(C(=O)CCC(N)=O)C1` [Compound 46, (R)-4-(3-(3-((5-chloro-1H-indol-2-yl)methyl)-1-methylureido)piperidin-1-yl)-4-oxobutanamide], which IC50 is on record?
A: 1240 nM

Q: For `CN(C(=O)NCc1cc2cc(Cl)ccc2[nH]1)[C@@H]1CCCN(C(=O)c2cc(CO)on2)C1` [Compound 47, (R)-3-((5-chloro-1H-indol-2-yl)methyl)-1-(1-(5-(hydroxymethyl)isoxazole-3-carbonyl)piperidin-3-yl)-1-methylurea], which IC50 is on record?
A: 2460 nM

Q: For `CN(C(=O)NCc1cc2cc(Cl)ccc2[nH]1)[C@@H]1CCCN(C(=O)C2CCC2)C1` [Compound 48, (R)-3-((5-chloro-1H-indol-2-yl)methyl)-1-(1-(cyclobutanecarbonyl)piperidin-3-yl)-1-methylurea], which IC50 is on record?
A: 44.2 nM

Q: For `CN(C(=O)NCc1cc2cc(Cl)ccc2[nH]1)[C@@H]1CCCN(C(=O)CC2CC2)C1` [Compound 49, (R)-3-((5-chloro-1H-indol-2-yl)methyl)-1-(1-(2-cyclopropylacetyl)piperidin-3-yl)-1-methylurea], which IC50 is on record?
A: 371 nM

Q: How did the IC50 turn out when `CN(C(=O)NCc1cc2cc(Cl)ccc2[nH]1)[C@@H]1CCCN(C(=O)C(C)(O)C(F)(F)F)C1` (stereo partly drawn) [Compound 50, 3-((5-chloro-1H-indol-2-yl)methyl)-1-methyl-1-((3R)-1-(3,3,3-trifluoro-2-hydroxy-2-methylpropanoyl)piperidin-3-yl)urea] was run?
A: 4770 nM

Q: With `CN(C(=O)NCc1cc2cc(Cl)ccc2[nH]1)[C@@H]1CCCN(C(=O)c2ccnn2C)C1` [Compound 51, (R)-3-((5-chloro-1H-indol-2-yl)methyl)-1-methyl-1-(1-(1-methyl-1H-pyrazole-5-carbonyl)piperidin-3-yl)urea] as the molecule, how does the IC50 read?
A: 4800 nM
